Assay results: US6737383B1, “Herbicidal oxadiazolidines” (priority 1999, dated 2004)

Columns and labels:
[1] = tested on: winter barley; assay: Test E winter barley; type: in vivo, Hordeum vulgare; details: Preemergence
[2] = tested on: smallflower flatsedge; assay: Test B flood test smallflower flatsedge; type: in vivo, Cyperus difformis
Procedure, shortened: (§1)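 Each value is a visual injury score relative to controls, with 10 meaning complete control and 0 no effect. Evaluation took place twelve to sixteen days after the 2-leaf-stage plants were treated and kept in the greenhouse.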

[3] = tested on: green foxtail; assay: Test E green foxtail; type: in vivo, Setaria viridis; details: Preemergence
[4] = tested on: winter wheat; assay: Test E winter wheat; type: in vivo, Triticum aestivum; details: Preemergence
[5] = tested on: blackgrass; assay: Test E blackgrass; type: in vivo, Alopecurus myosuroides; details: Preemergence
[6] = tested on: winter wheat; assay: Test E winter wheat; type: in vivo, Triticum aestivum; details: Postemergence
Procedure, shortened: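 Visually scored herbicidal effect relative to untreated plants, taken ~21 to 28 days post-application; compound in solvent with surfactant; postemergence sprays at the 1- to 4-leaf stage.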

[7] = tested on: wild oat; assay: Test E wild oat; type: in vivo, Avena fatua; details: Preemergence
[8] = tested on: sugar beet; assay: Test B pre/postemergence sugar beet; type: in vivo, Beta vulgaris; details: for Plant response rating, Sugarbeets: Rate 250 g/ha
Procedure, shortened: (§2)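 Herbicidal effect was estimated by eye on a ten-point control scale after plants spent twelve to sixteen days in a greenhouse following soil or foliar treatment. Foliar sprays targeted plants at one to four leaves; all doses were formulated in a non-phytotoxic solvent with surfactant.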

[9] = tested on: bamyardgrass; assay: Test B flood test barnyardgrass; type: in vivo, Echinochloa crus-galli
Procedure, shortened: as §1

[10] = tested on: tall mallow; assay: Test D tall mallow; type: in vivo, Malva sylvestris; details: Preemergence, 0 to 100 scale
Procedure, shortened: (§3)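 Seeds were sown in greenhouse pots, one species per pot or compartment. Compounds were in a non-phytotoxic solvent mixture with surfactant; preemergence applications went on the sandy loam surface within one day of planting. Injury was rated visually after 14 to 21 days, 0 (none) to 100 (complete control).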

[11] = tested on: Italian ryegrass; assay: Test E Italian ryegrass; type: in vivo, Lolium multiflorum; details: Preemergence
[12] = tested on: guineagrass; assay: Test D guineagrass; type: in vivo, Panicum maximum; details: Preemergence, 0 to 100 scale
Procedure, shortened: as §3

[13] = tested on: cocklebur; assay: Test B pre/postemergence cocklebur; type: in vivo, Xanthium strumarium
Procedure, shortened: as §2

[14] = Rate 62 g/ha, 0 to 100 scale, 0 no effect, 100 complete control
[15] = Rate 125 g/ha, 0 to 100 scale (0 no effect, 100 complete control)
[16] = Rate 500 g/ha, listed under Postemergence (flood test species), scale 0 to 10, 0 no effect, 10 complete control
[17] = Postemergence, Rate 125 g/ha, scale of 0 to 10 where 0 is no effect and 10 is complete control
[18] = Preemergence, Rate 62 g/ha, scale 0 to 10 (0 no effect, 10 complete control)
[19] = Preemergence, Rate 500 g/ha, scale 0 to 10 (0 no effect, 10 complete control)
[20] = Rate 62 g/ha, Postemergence, scale of 0 to 10 where 0 is no effect and 10 is complete control
[21] = Rate 500 g/ha, Postemergence, scale 0 to 10, 0 no effect, 10 complete control
[22] = Rate 16 g/ha, 0 no injury, 100 complete control
[23] = Rate 32 g/ha, 0 no injury, 100 complete control
[24] = Rate 64 g/ha, 0 no injury, 100 complete control

CC(C)N(C(=O)n1oc(=O)n(C2CCCCC2)c1=O)c1ccccc1 [Compound 112]
Plant response rating, Barley (winter) [1, 14]: 0 | Plant response rating, Barley (winter) [1, 15]: 10 | Plant response rating, Barley (winter) ([1]; Rate 250 g/ha, 0 to 100 scale): 10 | S. Flatsedge plant response rating ([2]; Postemergence (flood test species), Rate 125 g/ha, scale of 0 to 10 where 0 is no effect and 10 is complete control): 0 | S. Flatsedge plant response rating ([2]; Rate 62 g/ha, Postemergence section, flood test species, scale of 0 to 10 where 0 is no effect and 10 is complete control): 0 | Plant response rating, S. Flatsedge ([2]; Rate 250 g/ha, Postemergence (flood test), scale 0 to 10, 0 is no effect, 10 is complete control): 0 | S. Flatsedge plant response rating [2, 16]: 0 | Plant response rating, Green foxtail [3, 14]: 10 | Plant response rating, Green foxtail [3, 15]: 20 | Plant response rating, Green foxtail ([3]; Rate 250 g/ha, 0 to 100 scale): 50 | Plant response rating, Wheat (winter) [4, 14]: 0 | Plant response rating, Wheat (winter) [4, 15]: 0 | Plant response rating, Wheat (winter) ([4]; Rate 250 g/ha, 0 to 100 scale): 0 | Plant response rating, Blackgrass [5, 14]: 10 | Plant response rating, Blackgrass [5, 15]: 20 | Plant response rating, Blackgrass ([5]; Rate 250 g/ha, 0 to 100 scale): 50 | Plant response rating, Wheat (winter) ([6]; Rate 62 g/ha, 0 to 100 scale): 0 | Plant response rating, Wheat (winter) ([6]; Rate 125 g/ha, 0 to 100 scale): 0 | Plant response rating, Wheat (winter) ([6]; Rate 250 g/ha, 0 to 100 scale (0 no effect, 100 complete control)): 10 | Plant response rating, Wild oat [7, 14]: 0 | Plant response rating, Wild oat [7, 15]: 0 | Sugarbeets plant response rating [8, 17]: 2 | Sugarbeets plant response rating [8, 18]: 0 | Sugarbeets plant response rating (0 to 10 scale) ([8]; Preemergence, Rate 125 g/ha, 0 is no effect, 10 is complete control): 0 | Plant response rating, Sugarbeets ([8]; Preemergence, scale of 0 to 10 where 0 is no effect and 10 is complete control): 0 | Sugarbeets plant response rating [8, 19]: 0 | Sugarbeets plant response rating [8, 20]: 2 | Plant response rating, Sugarbeets ([8]; Postemergence, scale 0 to 10, 0 is no effect, 10 is complete control): 3 | Sugarbeets plant response rating [8, 21]: 3 | Barnyardgrass plant response rating ([9]; Postemergence, Rate 62 g/ha, scale 0 to 10, 0 is no effect, 10 is complete control): 0 | Barnyardgrass plant response rating ([9]; Rate 125 g/ha, Postemergence section (flood test species), scale 0 to 10, 0 no effect, 10 complete control): 0 | Barnyardgrass plant response rating [9, 16]: 0 | Barnyardgrass plant response rating ([9]; flood test, listed under Postemergence, Rate 250 g/ha, scale 0 to 10, 0 no effect, 10 complete control): 0 | Plant response rating, Tall Mallow [10, 22]: 0 | Plant response rating, Tall Mallow [10, 23]: 0 | Tall Mallow plant response rating [10, 24]: 0 | Plant response rating, Tall Mallow ([10]; Rate 250 g/ha): 0 | Plant response rating, Tall Mallow ([10]; Rate 500 g/ha): 20 | Plant response rating, I. Ryegrass [11, 14]: 0 | Plant response rating, I. Ryegrass [11, 15]: 0 | Plant response rating, I. Ryegrass ([11]; Rate 250 g/ha, 0 to 100 scale): 20 | Plant response rating, Guineagrass [12, 22]: 0 | Plant response rating, Guineagrass [12, 23]: 0 | Plant response rating, Guineagrass [12, 24]: 40 | Plant response rating, Guineagrass ([12]; Rate 250 g/ha): 90 | Plant response rating, Guineagrass ([12]; Rate 500 g/ha): 100 | Cocklebur plant response rating [13, 17]: 1 | Cocklebur plant response rating ([13]; Postemergence, Rate 250 g/ha, scale 0 to 10, 0 no effect, 10 complete control): 2 | Cocklebur plant response rating [13, 18]: 0 | Plant response rating, Cocklebur ([13]; Preemergence, Rate 125 g/ha, scale 0 to 10 (0 no effect, 10 complete control)): 0 | Plant response rating, Cocklebur ([13]; Preemergence, Rate 250 g/ha, scale of 0 to 10 where 0 is no effect and 10 is complete control): 0 | Cocklebur plant response rating [13, 19]: 0 | Cocklebur plant response rating [13, 20]: 0 | Cocklebur plant response rating [13, 21]: 2
